Legend:
[1] = Intrinsic clearance in human; assay type: ADME, organism-based; conditions: in vivo
[2] = Intrinsic clearance in rat; assay type: ADME, organism-based; conditions: in vivo

Row | SMILES | CLint scaled [1] | CLint scaled [2]
1 | CCOC(=O)c1ccc(-c2nn(Cc3ccccc3)c3ccccc23)cc1 | 75 mL/min/kg | 1090 mL/min/kg
2 | Cn1c(CO)c(-c2ccccc2)c2cc([N+](=O)[O-])ccc21 | 157 mL/min/kg | 359 mL/min/kg
3 | CCOC(=O)c1ccc(-c2cn(Cc3ccccc3)c3ccccc23)cc1 | 77 mL/min/kg | 1160 mL/min/kg

From ChEMBL document CHEMBL3352238, “Substituted indoles as selective protease activated receptor 4 (PAR-4) antagonists: Discovery and SAR of ML354” (Bioorg Med Chem Lett, 2014)
